The structures appear in SMILES notation.

The test has as its system allergens. Put plainly: Evaluation of oxidants and antimicrobials for allergen deactivating ability. The following applies: very dilute solution, on the order of 40-80 ppm. The source says: Presumably the low levels of oxidant are still able to break up the allergen proteins, rendering them biologically inert.

For `OCl` [hypochlorous acid], the Allergen deactivating ability result was “effectively deactivate allergens”.

For the origin of these results see US20070227930A1, “Antimicrobial Product Combination” (priority 2006, published 2007).
